Laboratory results: patent US12331033B2, “Inhibitors of SARM1” (Disarm Therapeutics, Inc., priority 2020, dated 2025)

Target: SARM1 (ARM-SAM-TIR) (Homo sapiens (Human), UniProt Q6SZW1)
Experiment: ARM-SAM-TIR SARM1 IC50 assay (NADase activity, NAD+ cleavage, RapidFire MS)
Format: biochemical
Details: ARM-SAM-TIR lysate 5 μg/mL, 2 h pre-incubation, 5 μM NAD+, 2 hr room temperature
Protocol: This Example describes an assay of ARM-SAM-TIR NADase activity and use of this assay to measure the efficacy of compounds of Formula I or Formula I′ to block SARM1 mediated NAD+ cleavage. This assay was optimized in such a way as to characterize the efficacy of the compounds in Formula I or Formula I′ to inhibit SARM1 activity and to calculate an IC50 value for each compound. This assay makes use of full length SARM1, which encompasses the ARM, SAM and TIR domains.
NRK1-HEK293T cells were seeded onto 150 cm^2 plates at 20×10^6 cells per plate. The next day, the cells were transfected with 15 μg ARM-SAM-TIR expression plasmid, SEQ ID NO: 1.
The cultures were supplemented with 1 mM NR at time of transfection to minimize toxicity from ARM-SAM-TIR overexpression. Forty-eight hours after transfection, cells were harvested, pelleted by centrifugation at 1,000 rpm (Sorvall ST 16R centrifuge, Thermo Fisher), and washed once with cold PBS (0.01 M phosphate buffered saline NaCl 0.138 M; KCl 0.0027 M; pH 7.4). The cells were resuspended in PBS with protease inhibitors (cOmplete™ protease inhibitor cocktail, Roche product #11873580001) and cell lysates were prepared by sonication (Branson Sonifer 450, output=3, 20 episodes of stroke). The lysates were centrifuged (12,000×g for 10 min at 4° C.) to remove cell debris and the supernatants (containing ARM-SAM-TIR protein) were stored at −80° C. for later use in the in vitro ARM-SAM-TIR NADase assay (see below). Protein concentration was determined by the Bicinchoninic (BCA) method and used to normalize lysate concentrations.
The enzymatic assay was performed in a 384-well polypropylene plate in Dulbecco's PBS buffer in a final assay volume of 20 μL. ARM-SAM-TIR lysate with a final concentration of 5 μg/mL was pre-incubated with the respective compound at 1% DMSO final assay concentration over 2 h at room temperature. The reaction was initiated by addition of 5 μM final assay concentration of NAD+ as substrate. After a 2 hr room temperature incubation, the reaction was terminated with 40 μL of stop solution of 7.5% trichloroactetic acid in acetonitrile. The NAD+ and ADPR concentrations were analyzed by a RapidFire High Throughput Mass Spectrometry System (Agilent Technologies, Santa Clara, Calif.) using an API4000 triple quadrupole mass spectrometer (AB Sciex Framingham, Mass.).

Sequence of SARM1 (ARM-SAM-TIR) (Q6SZW1 other isoform, or with tags, fused parts or gaps): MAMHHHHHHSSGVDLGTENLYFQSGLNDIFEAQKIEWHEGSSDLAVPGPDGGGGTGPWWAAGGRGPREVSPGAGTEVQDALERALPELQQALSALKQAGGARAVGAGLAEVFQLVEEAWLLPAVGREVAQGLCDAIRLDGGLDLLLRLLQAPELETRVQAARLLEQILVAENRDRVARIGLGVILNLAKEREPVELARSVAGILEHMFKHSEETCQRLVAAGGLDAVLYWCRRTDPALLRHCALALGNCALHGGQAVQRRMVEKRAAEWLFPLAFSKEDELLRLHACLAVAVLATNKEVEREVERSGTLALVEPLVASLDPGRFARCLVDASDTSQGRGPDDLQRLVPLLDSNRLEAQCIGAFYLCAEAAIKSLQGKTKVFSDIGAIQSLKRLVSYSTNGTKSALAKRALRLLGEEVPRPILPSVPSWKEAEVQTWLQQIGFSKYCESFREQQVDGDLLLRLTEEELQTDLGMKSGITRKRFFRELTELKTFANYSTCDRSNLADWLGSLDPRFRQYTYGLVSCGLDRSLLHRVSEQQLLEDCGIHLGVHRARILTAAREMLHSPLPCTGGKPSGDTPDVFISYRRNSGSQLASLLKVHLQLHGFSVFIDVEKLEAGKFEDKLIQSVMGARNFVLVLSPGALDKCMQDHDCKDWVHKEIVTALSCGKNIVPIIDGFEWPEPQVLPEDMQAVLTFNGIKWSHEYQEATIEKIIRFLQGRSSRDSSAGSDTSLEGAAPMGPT

Row | Compound | IC50 [µM]
1 | Cc1ccccc1CCC(=O)Nc1nnc(-c2ccncc2)[nH]1 [Example 141] | < 5
2 | Cc1c(-c2ccncc2)n[nH]c1NC(=O)CN(C)c1ccc(Cl)cc1 [Example 224] | 5 to 15
3 | O=C(COc1ccccc1)Nc1nnc(-c2ccncc2)[nH]1 [Example 145] | > 30
4 | Cc1cccc(CS(=O)(=O)Nc2[nH]nc(-c3ccncc3)c2C)c1 [Example 254] | 5 to 15
5 | Cc1c(-c2ccncc2)n[nH]c1NC(=O)c1ccc(OC2CCC2)cc1 [Example 255] | 5 to 15
6 | O=C(CC1CCOc2cc(Cl)ccc21)Nc1cc(-c2ccnnc2)n[nH]1 (stereo not drawn) [Example 192] | < 5
7 | O=C(C[C@@H]1CCOc2nc(Cl)ccc21)Nc1nnc(-c2ccncc2)[nH]1 [Example 233] | < 5
8 | O=C(CCc1ccc(Cl)cc1)Nc1cc(-c2c(F)cncc2Br)n[nH]1 [Example 324] | 5 to 15
9 | O=C(CN1CCOc2cc(Cl)ccc21)Nc1nnc(-c2ccncc2)[nH]1 [Example 48] | < 5
10 | O=C(CCc1ccc(Cl)cc1)Nc1[nH]nc(-c2ccncc2)c1CO [Example 194] | < 5
11 | O=C(CCc1ccc(C(F)F)cc1)Nc1nnc(-c2ccncc2)[nH]1 [Example 97] | < 5
12 | Cc1c(-c2ccncc2)n[nH]c1NC(=O)N1CC(c2ccccc2)C1 [Example 216] | < 5
13 | Cc1cnccc1-c1n[nH]c(NC(=O)CCc2ccc(Cl)nc2)c1C [Example 322] | < 5
14 | CN(C(=O)CCc1ccccc1)c1nnc(-c2ccncc2)[nH]1 [Example 98] | 5 to 15
15 | O=C(CCc1ccc(Cl)cc1)Nc1nnc(-c2ccncc2)o1 [Example 100] | > 30
16 | O=C(Nc1nnc(-c2ccncc2)[nH]1)N1CCc2cc(Cl)ccc2C1 [Example 185] | < 5
17 | O=C(C[C@H]1CCOc2cc(Cl)ccc21)Nc1cc(-c2ccnnc2)n[nH]1 [Example 206] | < 5
18 | [2H]C([2H])(C(=O)Nc1cc(-c2ccncc2)n[nH]1)C([2H])([2H])c1ccc(Cl)nc1 [Example 9] | < 5
19 | Cc1c(-c2ccncc2)n[nH]c1NC(=O)Cn1cc(C)c2ccccc21 [Example 241] | 5 to 15
20 | Cc1c(-c2ccncc2)nn(C)c1NC(=O)CCc1ccc(Cl)nc1 [Example 287] | < 5
21 | [2H]C([2H])(C(=O)Nc1[nH]nc(-c2ccnnc2)c1C)C([2H])([2H])c1ccc(Cl)nc1 [Example 178] | < 5
22 | O=C(CCc1ccc(Cl)nc1)Nc1cc(-c2ccncc2)[nH]n1 [Example 55] | < 5
23 | O=C(CCc1ccc(Cl)cc1)Nc1cc(-c2c(F)cncc2F)n[nH]1 [Example 300] | < 5
24 | CC1(c2c(-c3ccnnc3)n[nH]c2NC(=O)CCc2ccc(Cl)cc2)CC1 [Example 311] | < 5
25 | O=C(CCc1ccc(Cl)cc1)Nc1nnc(-c2ccnc(O)c2)[nH]1 [Example 33] | > 30

Row | Compound | IC50 [µM]
26 | [2H]C([2H])(C(=O)Nc1[nH]nc(-c2ccncc2)c1C)C([2H])([2H])c1ccc(Cl)cc1 [Example 170] | < 5
27 | Cc1c(-c2ccnnc2)n[nH]c1NC(=O)CCc1ccc(Cl)nc1 [Example 205] | < 5
28 | O=C(CC1COCc2ccccc21)Nc1nnc(-c2ccncc2)[nH]1 (stereo not drawn) [Example 73] | 5 to 15
29 | Cc1c(-c2ccncc2F)n[nH]c1NC(=O)CCc1ccc(Cl)s1 [Example 308] | < 5
30 | Cc1c(-c2ccncc2)n[nH]c1NC(=O)CCc1ccc(Cl)c(F)c1 [Example 188] | < 5
31 | O=C(CC1CCOc2cc(Cl)ccc21)Nc1cc(-c2ccncc2)n[nH]1 (stereo not drawn) [Example 172] | < 5
32 | CC1(c2c(-c3ccncc3)n[nH]c2NC(=O)CCc2ccc(Cl)nc2)CC1 [Example 310] | < 5
33 | Cc1c(-c2ccncc2)n[nH]c1NC(=O)COc1ccc(Cl)cc1 [Example 269] | < 5
34 | O=C(Nc1cc(-c2ccncc2)n[nH]1)[C@H]1C[C@H](c2ccc(Cl)nc2)C1 [Example 236] | < 5
35 | O=C(CCc1ccc(Cl)nc1)Nc1cc(-c2ccnnc2)n[nH]1 [Example 19] | < 5
36 | O=C(C[C@@H]1CCOc2ccccc21)Nc1nnc(-c2ccncc2)[nH]1 [Example 71] | < 5
37 | CCC(C)c1cc(C(=O)Nc2[nH]nc(-c3ccncc3)c2C)on1 (stereo not drawn) [Example 244] | 5 to 15
38 | O=C(C[C@@H]1CCOc2cc(Cl)ccc21)Nc1nnc(-c2ccncc2)[nH]1 [Example 209] | < 5
39 | Cc1c(-c2ccncc2F)n[nH]c1NC(=O)[C@H]1C[C@H](c2ccc(Cl)cc2)C1 [Example 318] | < 5
40 | O=C(CCc1ccc(F)cc1Cl)Nc1nnc(-c2ccncc2)[nH]1 [Example 113] | < 5
41 | Cc1c(-c2ccncc2)n[nH]c1NC(=O)/C=C/c1c(F)cccc1F [Example 247] | 5 to 15
42 | Cc1c(-c2ccnnc2)n[nH]c1NC(=O)CCc1ccc(Cl)cc1 [Example 155] | < 5
43 | Cc1c(-c2ccncc2)n[nH]c1NC(=O)CS(=O)(=O)c1ccc(Cl)cc1 [Example 293] | < 5
44 | Cc1ccc(CCC(=O)Nc2[nH]nc(-c3ccncc3)c2C)cn1 [Example 306] | < 5
45 | O=C(CCC1CCCCC1)Nc1nnc(-c2ccncc2)[nH]1 [Example 134] | 5 to 15
46 | CC(=O)Nc1nnc(-c2ccncc2)[nH]1 [Example 144] | > 30
47 | O=C(Nc1nnc(-c2ccncc2)[nH]1)N[C@H]1CCOc2cc(Cl)ncc21 [Example 277] | < 5
48 | O=C(CCc1ccc(Cl)cc1F)Nc1nnc(-c2ccncc2)[nH]1 [Example 46] | < 5
49 | O=C(CCc1cccc(Cl)c1)Nc1nnc(-c2ccncc2)[nH]1 [Example 137] | < 5
50 | O=C(Nc1nnc(-c2ccncc2)[nH]1)C1CCc2ccccc2C1 (stereo not drawn) [Example 131] | < 5

Row | Compound | IC50 [µM]
51 | CN(Cc1ccc(Cl)cc1)C(=O)Nc1cc(-c2ccncc2)n[nH]1 [Example 6] | < 5
52 | N[C@H](Cc1ccc(Cl)cc1)C(=O)Nc1nnc(-c2ccncc2)[nH]1 [Example 82] | < 5
53 | O=C(C[C@H]1CCCc2ccccc21)Nc1nnc(-c2ccncc2)[nH]1 [Example 90] | < 5
54 | [2H]C([2H])(C(=O)Nc1nnc(-c2ccncc2)[nH]1)C([2H])([2H])c1ccc(Cl)cc1 [Example 169] | < 5
55 | Cc1c(-c2ccncc2)n[nH]c1NC(=O)CNC(=O)CC(C)(C)C [Example 259] | 5 to 15
56 | Cc1c(-c2ccncc2)n[nH]c1NC(=O)CCc1ccc(C#N)cc1 [Example 262] | < 5
57 | O=C(CCc1ccc(Cl)cc1)Nc1[nH]nc(-c2ccnnc2)c1C1CCC1 [Example 264] | < 5
58 | Cc1c(-c2ccnnc2)n[nH]c1NC(=O)CC1CCOc2cc(Cl)ccc21 (stereo not drawn) [Example 231] | < 5
59 | Cc1c(-c2ccnnc2)n[nH]c1NC(=O)CCc1ccc(Cl)s1 [Example 152] | < 5
60 | [2H]C([2H])(C(=O)Nc1nnc(-c2ccncc2)[nH]1)C([2H])([2H])c1ccc(Cl)nc1 [Example 8] | < 5
61 | N#Cc1cnccc1-c1nnc(NC(=O)CCc2ccc(Cl)cc2)[nH]1 [Example 225] | < 5
62 | CN(C)C(Cc1ccccc1)C(=O)Nc1nnc(-c2ccncc2)[nH]1 (stereo not drawn) [Example 52] | > 30
63 | N#Cc1cc(Cl)ccc1CCC(=O)Nc1nnc(-c2ccncc2)[nH]1 [Example 50] | < 5
64 | O=C(CCc1ccc(Cl)nc1)Nc1nnc(-c2ccncc2)[nH]1 [Example 84] | < 5
65 | CN(C(=O)CCc1ccc(Cl)nc1)c1cc(-c2ccncc2)n[nH]1 [Example 239] | < 5
66 | Cc1c(-c2ccncc2)n[nH]c1NC(=O)COc1ccc(C#N)cc1 [Example 253] | 5 to 15
67 | O=C(CN1C(=O)COc2cc(Cl)ccc21)Nc1nnc(-c2ccncc2)[nH]1 [Example 39] | > 30
68 | Nc1nnc(-c2ccncc2)[nH]1 [Example 147] | > 30
69 | O=C(NCc1cccc(Cl)c1)Nc1nnc(-c2ccncc2)[nH]1 [Example 160] | < 5
70 | Cc1c(-c2ccncc2)n[nH]c1NC(=O)CCc1cnc(Cl)c(F)c1 [Example 151] | < 5
71 | Cc1c(-c2ccncc2)n[nH]c1NC(=O)CCc1ccc(F)cc1 [Example 221] | < 5
72 | Cc1c(-c2ccncc2)n[nH]c1NC(=O)C1Cc2ccccc2CO1 (stereo not drawn) [Example 323] | 5 to 15
73 | O=C(CCc1ccc(Cl)cc1)Nc1nnc(-c2ccncc2F)[nH]1 [Example 11] | < 5
74 | N#Cc1c(-c2ccncc2F)n[nH]c1NC(=O)CCc1ccc(Cl)nc1 [Example 281] | < 5
75 | COCc1c(-c2ccncc2)n[nH]c1NC(=O)CCc1ccc(Cl)cc1 [Example 284] | < 5
